Experimental data reported in patent publication USRE36854E, “Vitamin D compounds and method of preparing these compounds” (Duphar International Research B.V., priority 1997, dated 2000).

What was measured:
[1] = molecular target: T1, calf thymus intracellular vitamin D receptor (VDR) (Bos taurus, UniProt Q28037); experiment: Affinity to intracellular vitamin D receptor (displacement of 3H-1α,25-DHCC); type: binding; conditions: 10^-13 to 10^-7 M
T1 construct: 3H-1α,25-DHCC displacement
T1 sequence (Q28037 1-426): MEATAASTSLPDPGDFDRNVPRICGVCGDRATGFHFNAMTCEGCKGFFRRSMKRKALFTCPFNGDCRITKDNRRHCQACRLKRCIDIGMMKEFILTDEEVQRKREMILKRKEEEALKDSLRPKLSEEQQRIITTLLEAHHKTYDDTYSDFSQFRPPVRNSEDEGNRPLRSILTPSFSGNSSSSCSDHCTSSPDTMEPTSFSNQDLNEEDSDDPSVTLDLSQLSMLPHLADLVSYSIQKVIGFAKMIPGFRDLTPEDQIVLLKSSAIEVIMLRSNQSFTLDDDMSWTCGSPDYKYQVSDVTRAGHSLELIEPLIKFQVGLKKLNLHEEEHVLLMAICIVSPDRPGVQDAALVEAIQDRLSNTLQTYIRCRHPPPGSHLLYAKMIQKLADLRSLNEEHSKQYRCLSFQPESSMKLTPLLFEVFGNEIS
Description: In this assay, ^3 H-1α,25-dihydroxycholecalciferol (^3 H-1α,25-DHCC), which is specifically bound to the VDR, is replaced by the tested compounds. Especially the tested compounds 11, 13 and 14 have a very high VDR-affinity. A high VDR-affinity is indicative for biologically active substances.

[2] = molecular target: T2, human vitamin D binding protein (DBP) (Homo sapiens, UniProt P02774); experiment: Affinity to vitamin D binding protein (competition with 3H-1α,25-DHCC); conditions: DBP purified from total human serum; 10^-11 to 2.5×10^-6 M; FIGS. 1 and 2
T2 sequence (P02774 17-474): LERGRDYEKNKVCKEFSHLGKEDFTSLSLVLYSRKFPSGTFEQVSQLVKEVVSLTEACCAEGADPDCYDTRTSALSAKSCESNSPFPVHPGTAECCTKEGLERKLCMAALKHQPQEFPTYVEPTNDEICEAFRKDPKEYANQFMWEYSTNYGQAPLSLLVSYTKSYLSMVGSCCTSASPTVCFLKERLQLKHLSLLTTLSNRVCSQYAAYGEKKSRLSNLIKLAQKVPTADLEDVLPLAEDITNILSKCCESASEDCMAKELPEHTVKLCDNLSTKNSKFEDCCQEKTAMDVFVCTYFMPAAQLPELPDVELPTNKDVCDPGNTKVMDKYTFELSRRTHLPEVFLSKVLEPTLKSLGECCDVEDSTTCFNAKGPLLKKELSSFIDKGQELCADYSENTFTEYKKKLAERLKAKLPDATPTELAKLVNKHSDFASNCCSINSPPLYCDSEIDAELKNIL
Method: Vitamin D binding protein (DBP) is the specific carrier for vitamin D and its metabolites in blood. The biological activity of vitamin D compounds depends on their binding to DBP, because strong binding to DBP will reduce the intracellular access to the VDR. Binding to the DBP may also influence the half-life of the vitamin D derivatives in circulation. Weak binders are rapidly matabolized, which is a favourable aspect in topical application. In the assay DBP is incubated with ^3 H-1α,25-DHCC and 1α,25-DHCC or with several vitamin D compounds according to the invention. To this purpose, the vitamin compounds are dissolved in ethanol in concentrations ranging from 10^-11 to 2.5×10^-6 M. The percentage bound/unbound ^3 H-1α,25-DHCC is then calculated. DBP is purified from total human serum. The results are shown in the appended FIGS. 1 and 2. FIGS. 1 and 2 show the binding of vitamin D compounds to human vitamin D binding protein. [^3 H]1α,25(OH)2 D3 =^3 H-1α,25-DHCC; in both Figures .circle-solid.=1α,25-DHCC (known compound); in FIG. 1 .tangle-solidup.=compound 13 and .gradient.=compound 14; in FIG. 2 Δ=compound 11.

[3] = tested on: human leukemic cell line HL-60; experiment: HL-60 cell differentiation assay (NBT reduction, non-specific esterase, May-Grunwald Giemsa); type: cell-based; conditions: for differentiation in the cytological test (non-specific esterase and May-Grunwald Giemsa) / induction of differentiation and maturation of the HL-60 cells / NBT-reduction inducing capacity relative to 1α,25-DHCC (fold stronger): HL-60; for concentration range of optimum effect: HL-60, cytological test; for induction of differentiation and maturation of the HL-60 cells: 10^-12 to 10^-6 M; for NBT-reduction inducing capacity relative to 1α,25-DHCC (fold stronger): FIGS. 3 and 4
Method: Vitamin D compounds according to the invention are dissolved in ethanol in concentrations ranging from 10^-12 to 10^-6 M and tested for their capacity to induce cell differentiation in a HL-60 assay. In this assay, morphologic and biochemical examination of the human leukemic cell line HL-60 is done, in order to establish whether cell differentiation has taken place.
Differentiation is expressed as the maturation parameters nitroblue tetrazolium (NBT) reduction, non-specific esterase, and as the percentage of mature cells beyond the myelocyte stage which is visible after staining with May-Grunwald Giemsa. After culturing with the known 1α,25-DHCC or with vitamin D compounds of the invention, the percentage of cells containing black formazan deposits is determined. An increase in the percentage of NBT reducing cells indicates an increase in cell differentiation.
Proliferation and vitality of the cell cultures are established by counting the number of cells and by the trypan blue exclusion method.

[4] = tested on: intestinal cancer cell line Caco-2; experiment: Caco-2 assay for intestinal calcium transport (45Ca2+ influx); type: cell-based; conditions: for relative increase in Ca^2+ influx (1α,25-DHCC = 100): 10^-9 M
Method: The most well-known effect of 1α,25-DHCC is its action on the calcium metabolism, the calciotropic effect. Calciotropic target organs are the intestine, the bone and the kidney. The vitamin D compounds according to the invention are dissolved in ethanol and tested in the so-called Caco-2 assay for intestinal calcium (Ca) transport. In this assay, the vitamin D-induced influx of ^45 Ca^2+ is measured in monolayers of the intestinal cancer cell line Caco-2. This influx is corrected for the concentration-driven Ca^2+ influx and is a measure for the Ca transport across the intestinal wall. The Caco-2 cells are known to have vitamin D receptors. Increased intestinal calcium transport can be the first step leading to a rise in blood calcium levels (and eventually to hypercalcemia). […] The values in the table represent the relative increase in Ca^2 + influx (the value for 1α,25-DHCC is arbitrarily fixed at 100).

[5] = tested on: rabbit kidney cells; experiment: Rabbit kidney cell assay (45Ca2+ reabsorption); type: cell-based; conditions: rabbit renal cell cultures; for increase in Ca^2+ -reabsorption: 10^-9 M
Method: Together with the intestine and the bone, the kidney is one of the major target organs of 1α,25-DHCC. The kidney plays an extremely important role in calcium homeostasis, since about 98% of the calcium has to be reabsorbed in the kidneys in order to prevent calcium loss and hypocalcemia. The vitamin D compounds according to the invention are dissolved in ethanol and tested in the rabbit kidney cell assay. In this assay, reabsorption of ^45 Ca^2+ is measured in monolayers of rabbit kidney cells. The cells are isolated by immunodissection of connecting tubules with the aid of monoclonal antibodies. […] The values in the Table represent the increase in Ca^2+ -reabsorption in mmol/cm^2 /h.

[6] = tested on: HL-60 cells / intestinal Ca^2+ transport; experiment: Cell differentiation versus calciotropic effect (ratio of HL-60 NBT reduction to intestinal Ca2+ transport); type: cell-based, human; conditions: for selectivity of action / better ratio than 1α,25-DHCC (fold): differentiation versus intestinal Ca transport; for ratio relative to DHCC: fraction normalised to 1α,25-DHCC = 1.00; for fraction (concentration for 50% NBT reduction in HL-60 cells / concentration for half-maximal increase in intestinal Ca^2+ transport): smaller ratio = higher relative cell differentiating capacity
Description: Therefore, it should be very advantageous to develop compounds with a high selectivity of biological action. In other words, compounds in which the ratio between the induction of cell differentiation and calciotropic effects, e.g. the stimulation of intestinal Ca transport, is changed compared to 1α,25-DHCC. The ratio between differentiation-inducing capacity and the stimulation of intestinal Ca transport is defined as the fraction between the concentration at which 50% NBT reduction in HL-60 cells is obtained, and the concentration at which a half-maximal increase in intestinal Ca^2+ transport is reached. The smaller the ratio, the higher the relative cell differentiating capacity.

Row | VDR-affinity [1] | binding to the DBP, compared to the known 1α,25-DHCC [2] | Structure (SMILES) | differentiation in the cytological test (non-specific esterase and May-Grunwald Giemsa) [3] | concentration range of optimum effect [3] | induction of differentiation and maturation of the HL-60 cells [3] | NBT-reduction inducing capacity relative to 1α,25-DHCC (fold stronger) [3] | stimulation of intestinal calcium absorption compared with 1α,25-DHCC [4] | relative increase in Ca^2+ influx (1α,25-DHCC = 100) ([4]; experiment 2) | stimulation of renal Ca-reabsorption compared with compound 12 and 1α,25-DHCC [5] | increase in Ca^2+ -reabsorption [5] [mmol/cm^2 /h] | selectivity of action / better ratio than 1α,25-DHCC (fold) [6] [×] | ratio relative to DHCC [6] | fraction (concentration for 50% NBT reduction in HL-60 cells / concentration for half-maximal increase in intestinal Ca^2+ transport) [6] | relative increase in Ca^2+ influx (1α,25-DHCC = 100) ([4]; experiment 1)
1 | very high | very weak binder | C=C1/C(=C\C=C2/CCC[C@@]3(C)C2CCC3[C@H](C)CCCC(O)(C(C)C)C(C)C)C[C@@H](O)C[C@@H]1O (stereo partly drawn) [Compound 13] | good differentiators | 10^-8 to 10^-7 M | induce differentiation and maturation | about 10 × | weaker stimulators | 65 | weaker stimulators | -3.7 | 50 | 0.02 | 2.5 | 
2 | very high | bind rather weakly | C=C1/C(=C\C=C2/CCC[C@@]3(CC)C2CCC3[C@H](C)CCCC(O)(C(C)C)C(C)C)C[C@@H](O)C[C@@H]1O (stereo partly drawn) [Compound 14] |  |  | induce differentiation and maturation | about 10 × | weaker stimulators | 78 |  |  | 50 | 0.02 | 2.6 | 

Continued, compound first:

Row | Structure (SMILES) | VDR-affinity [1] | binding to the DBP, compared to the known 1α,25-DHCC [2] | differentiation in the cytological test (non-specific esterase and May-Grunwald Giemsa) [3] | concentration range of optimum effect [3] | induction of differentiation and maturation of the HL-60 cells [3] | NBT-reduction inducing capacity relative to 1α,25-DHCC (fold stronger) [3] | stimulation of intestinal calcium absorption compared with 1α,25-DHCC [4] | relative increase in Ca^2+ influx (1α,25-DHCC = 100) ([4]; experiment 2) | stimulation of renal Ca-reabsorption compared with compound 12 and 1α,25-DHCC [5] | increase in Ca^2+ -reabsorption [5] [mmol/cm^2 /h] | selectivity of action / better ratio than 1α,25-DHCC (fold) [6] [×] | ratio relative to DHCC [6] | fraction (concentration for 50% NBT reduction in HL-60 cells / concentration for half-maximal increase in intestinal Ca^2+ transport) [6] | relative increase in Ca^2+ influx (1α,25-DHCC = 100) ([4]; experiment 1)
3 | C=C1/C(=C\C=C2/CCC[C@@]3(C)C2CCC3[C@H](C)CCCC(O)(C2CC2)C2CC2)C[C@@H](O)C[C@@H]1O (stereo partly drawn) [Compound 11] | very high | bind rather weakly | good differentiators | 10^-8 to 10^-7 M | induce differentiation and maturation | about 5 × | weaker stimulators |  | weaker stimulators | 2.4 | 8 | 0.13 | 14.4 | 79
4 | C=C1/C(=C\C=C2/CCC[C@]3(C)[C@@H]([C@H](C)CCCC(C)(C)O)CC[C@@H]23)C[C@@H](O)C[C@@H]1O [1α,25-DHCC, 1α,25-dihydroxycholecalciferol, reference compound] |  |  |  |  | induce differentiation and maturation |  |  | 100 |  | 13.4 |  | 1.00 | 107 | 100
5 | C=C1/C(=C\C=C2/CCC[C@@]3(C)C2CCC3[C@H](C)CCCC(O)(C(C)(C)C)C(C)(C)C)C[C@@H](O)C[C@@H]1O (stereo partly drawn) [Compound 12] |  |  |  |  | induce differentiation and maturation | about 5 × |  |  |  | 12.8 | 4 | 0.28 | 29.7 | 99
